Measured values from article doi:10.1101/2021.04.29.441652v1 (biorxiv, 2021).

Molecular target: human σ2 receptor (TMEM97) (Homo sapiens, UniProt Q5BJF2)
Assay: biochemical
Assay type: Expi293 membranes
Conditions: read-out: % of control remaining

Sequence of human σ2 receptor (TMEM97) (Q5BJF2 whole entry): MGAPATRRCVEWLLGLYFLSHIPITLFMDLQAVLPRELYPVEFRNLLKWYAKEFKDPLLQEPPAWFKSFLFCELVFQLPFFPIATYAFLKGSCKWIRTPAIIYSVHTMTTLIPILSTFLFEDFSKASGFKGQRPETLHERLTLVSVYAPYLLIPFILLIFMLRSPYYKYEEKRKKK

SMILES	remaining activity at 1 µM [%]
O=C([C@@H]1CCCN1c1ncccn1)N1CC[C@@H](N2CC[C@H](O)C2)C1 [ZINC000627254962]	114
COc1ccccc1C[C@@](C)(CO)NCc1ccc2c(c1)ncn2C [ZINC000631236280]	92
O=C(Nc1cscc1Cl)C(=O)N[C@@H]1CCN(CC2CC2)C1 [ZINC000635049325]	53.2
Clc1ccc(O[C@H]2CCN(C3CCCC3)C2)cc1 [ZINC000645238909]	35.5
C[C@@H](Cc1c(Cl)cccc1Cl)NC(=O)c1cn(C[C@@H]2CCCN2)nn1 [ZINC000646273308]	106
O=C(CN1CCC[C@@H]1[C@@H]1CCC[C@H]1O)N1CCOC[C@H]1C1CC1 [ZINC000649929688]	96.5
O=C(Nc1ccc2ncnn2c1)[C@]1(O)CCN(Cc2ccccc2)C1 [ZINC000655168559]	97.6
Cc1cc(F)c(CN[C@@H]2CCN(c3ccccc3C(N)=O)C2)c(Cl)c1 [ZINC000656499190]	71.5
OC[C@]1(CNC2=NCCCN2)CCc2ccccc21 [ZINC000656508398]	55.9
C[C@@H](Cc1ccc2c(c1)CCCC2)N[C@H]1CCN(C2CCOCC2)C1=O [ZINC000657922756]	1.7
C[C@H](Cn1ncc2ccccc2c1=O)N[C@@H](C)Cc1ccc2c(c1)CCCC2 [ZINC000657934399]	13.3
C[C@H](Cn1cncn1)N[C@@H]1CCN(c2ccccc2C(F)(F)F)C1 [ZINC000657977970]	83.1
COc1ccc([C@@H](C)N[C@H](CO)C2CCC2)cc1Br [ZINC000658086473]	42.3
CCOc1cc2c(cc1NC(=O)C[C@@H]1NCc3ccccc31)O[C@@H](C)C2 [ZINC000659267272]	101
CNC[C@H](C)NC(=O)C(=O)NCc1ccc(N2CCO[C@@H](C)C2)nc1 [ZINC000659691253]	82.1
O=C(CN1CC2CC1(c1ccccc1)C2)NC[C@@H]1CCCO1 [ZINC000662335416]	122
CN(CC(=O)Nc1c(Cl)cccc1Cl)C[C@@H]1CC1(C)C [ZINC000662345330]	42.3
COc1cc(NC(=O)CC2(N)CC2)cc(OC)c1Br [ZINC000662800454]	106
O=C(N[C@H]1CCOC2(CCC2)C1)N1CCC(N2CC[C@@H](O)C2)CC1 [ZINC000664479370]	103
CN(C)Cc1ccc(-c2cscc2CCO)cc1F [ZINC000665143541]	108
O=C(Nc1cnn(CC2CC2)c1)C(=O)N1CCC[C@H]([C@@H]2CCNC2)C1 [ZINC000667676804]	94.4
Cc1ccccc1-n1cc(CN2CCC[C@@H]([C@H]3CCCCO3)C2)nn1 [ZINC000668631550]	58.4
OC[C@H](N[C@H]1Cc2[nH]c3ccccc3c2C1)C1CCCCC1 [ZINC000669616349]	56.6
C[C@@H](NC(=O)C(=O)NCCCN1CCC[C@H](C(N)=O)C1)C1CCC1 [ZINC000671981913]	106
C[C@H]1[C@H](N2CCCC2)CCN1Cc1cn2cc(Br)ccc2n1 [ZINC000672564445]	69.7
O=C(NCCCC1CC1)C(=O)NC1CCN([C@H]2CCC[C@@H]2O)CC1 [ZINC000673584800]	110
Clc1ccccc1Cn1cc(CN2CCC[C@@H]2c2ccc[nH]2)cn1 [ZINC000676461131]	63.8

SMILES	remaining activity at 1 µM [%]
c1ccc(-n2cncn2)c(CN2CCC[C@H](N3CCCC3)CC2)c1 [ZINC000678272880]	55.7
CN1CC[C@H]2CCN(C(=O)C(=O)Nc3cnc4c(c3)COCC4)[C@@H]2C1 [ZINC000679371269]	114
COCCOCc1cccc(NC(=O)NCC2(C)CCN(C)CC2)c1 [ZINC000679555790]	103
Fc1cc(Br)cnc1N1CCN(CCc2cccs2)CC1 [ZINC000681377109]	114
CC[C@@]1(NCC(=O)Nc2ccc(C)cc2Br)CCOC1 [ZINC000683045155]	108
Clc1ccccc1Cn1cc(CNc2nc3ccccc3[nH]2)cn1 [ZINC000683721842]	99.8
CCN(CC)c1ncc(CN2CC(C(C)C)C2)s1 [ZINC000684407814]	70.6
CC(C)C1CN(C[C@@H](O)COC(c2ccccc2)c2ccccc2)C1 [ZINC000684607185]	17.3
Brc1ccccc1-n1cc(CN2CC[C@@H]3CCC[C@@H]32)nn1 [ZINC000685844120]	51.3
CCN1CCN(CCNC(=S)N[C@H](C)c2cccs2)CC1 [ZINC000726467110]	79.5
O[C@@H](CN1CCN(c2ccc(-c3nn[nH]n3)cc2F)CC1)C1CC1 [ZINC000738383044]	118
O[C@@H](CN1CC[C@@H](CSc2ccccc2)C1)c1c(F)cccc1F [ZINC000743860012]	23.7
CN(C(=O)CCn1cnc2c1c(=O)n(C)c(=O)n2C)c1cn[nH]c1 [ZINC000748395040]	108
Cc1nn(Cc2ccc(F)cc2)c(Cl)c1CNC[C@@]1(O)CCN(C)C1 [ZINC000762555244]	84.1
Cc1ccc2c(c1)CC[C@H]2N[C@@H](CO)Cc1ccccc1 [ZINC000766031584]	63.2
C[C@H](CCN1C(=O)c2ccccc2C1=O)NC[C@@H](O)c1c(F)cccc1F [ZINC000769519341]	91.7
O=C(NC1CCCCC1)C(=O)NC1CCN(C[C@H]2CCCO2)CC1 [ZINC000774469834]	83.3
COc1ccc([C@H]2CCN(C[C@@H](O)c3ccc(F)cc3Cl)C2)cc1 [ZINC000775588849]	39
O=C1NCCC[C@@H]1N1CC[C@@](O)(c2ccc(F)cc2)C1 [ZINC000777733869]	108
O=[N+]([O-])c1cccc([C@H](O)CN2CC(Cc3cccc(C(F)(F)F)c3)C2)c1 [ZINC000792998860]	3.8
O[C@H](CN[C@@H]1CCc2ccccc2OC1)COc1c(Cl)cccc1Cl [ZINC000801571276]	37.6
Cc1ccc(C2=NO[C@@H](CNC(=O)N3CC[C@H](N4CCCC4)C3)C2)cc1C [ZINC000802379169]	89.7
O=C(NC[C@@H]1CN2CCC[C@@H]2CO1)C(=O)N[C@@H]1CC[C@H]2CCC[C@@H]2C1 [ZINC000804054066]	90
COc1ccc(C(=O)N2CC[C@H](N3CCCC3)[C@@H]2C)nc1Cl [ZINC000805335094]	133
CN1CCN(CCNC(=O)C(=O)NC[C@H]2CCC=CO2)CC1(C)C [ZINC000805503179]	105
CC[C@@H](CN1CCCC1)NC(=O)C(=O)NC1COC(C)(C)OC1 [ZINC000806327364]	106
Cc1ccc(N2CCN(C(=O)C(=O)N[C@@H]3CN(C4CC4)C[C@@H]3C)CC2)cc1 [ZINC000809405032]	99.4

SMILES	remaining activity at 1 µM [%]
C[C@H](NC(=O)c1ccc2[nH]c(=O)c(=O)[nH]c2c1)[C@H](O)c1ccccc1 [ZINC000813849560]	108
CC(C)(C)OC(=O)N1CCC[C@@](C)(CNC[C@@H](O)c2c(F)cccc2F)C1 [ZINC000819225653]	17.6
C[C@H]1[C@H](N(C)C)CCN1c1snc(Cl)c1C#N [ZINC000820594289]	104
O=C([C@H](O)c1cccc([N+](=O)[O-])c1)N1CC[C@H](N2CCCC2)C1 [ZINC000825615260]	104
CS[C@@H]1CCN(C[C@@H](O)c2ccccc2C(F)(F)F)C1 [ZINC000830877226]	78.8
C[C@@H]1CCC[C@H](CCN2CCC([C@H](O)c3ncc[nH]3)CC2)C1 [ZINC000839577413]	28.7
OC[C@@H](CNC[C@H](O)c1ccc(F)c(Br)c1)CC1CCCC1 [ZINC000843092160]	16.2
Fc1ccc(C2OCCO2)c(Cl)c1CNC1CC2(CCC2)C1 [ZINC000846106280]	43.6
CN1CC[C@]2(CCN(C(=O)C(=O)Nc3cccc4nonc34)C2)C1 [ZINC000847525041]	59.3
C[C@H]1CN/C(=N/CCCc2c(Cl)cccc2Cl)N1 [ZINC000849049798]	8.7
CON(C)CCNC(=O)C(=O)Nc1ccc2c(c1)C(=O)N(C)C2=O [ZINC000850493342]	136
Fc1ccc(NC(=S)NC2CCN([C@H]3CCOC3)CC2)cc1 [ZINC000853031922]	115
C[C@H](Nc1nc(N)nc(N)n1)c1ccccc1C(F)(F)F [ZINC000858362097]	142
Cc1cc(N(C)C)ccc1CNC(=O)C(=O)NC[C@@H]1COCCN1 [ZINC000861751799]	106
CCC1(N2CCOCC2)CCN(C(=O)C2=NN(C)C(=O)CC2)CC1 [ZINC000863492725]	179
CN1CCN(C2CCN(c3nc(N)c4ccccc4n3)CC2)CC1 [ZINC000866213504]	204
C[C@H]1CCC[C@H](NC(=O)C(=O)N2CCC(N3CCN(C)CC3)CC2)CC1 [ZINC000875242850]	76.2
O[C@@H](CN1CC[C@@H](c2ccccc2F)C1)CC1(O)CCCCC1 [ZINC000878084395]	27.7
NC(=O)C1(N2CCCCC2)CCN(CC(=O)NCC2CCC2)CC1 [ZINC000880249690]	113
C=CCC1(O)CCN([C@H](C)C(=O)N[C@@H](C)c2ccc(Cl)cc2)CC1 [ZINC000886762228]	110
Cc1cc(C(=O)CN2CC[C@@H]([C@H]3CCCO3)C2)c(C)n1C1CC1 [ZINC000886836194]	24.1
CO[C@@H]1CN(C(=O)NCc2ccnc(N3CCN(C)CC3)c2)CCO1 [ZINC000891830660]	116
CC[C@H](CO)N1CCN(c2cc(Cl)c3cnn(C)c3n2)CC1 [ZINC000892713700]	99.5
Cc1cccc2sc(N3CCN(CCO)[C@H](C)C3)nc12 [ZINC000893277758]	95.1
CC[C@@H](C)N1CCN(c2nc(N)nc(C(F)(F)C(F)(F)F)n2)CC1 [ZINC000894101819]	35
